Like-named read-outs stand apart in the source and are kept apart here.
Key:
[1] = system: IL-12 induced STAT4 phophorylation mediated by Tyk2/JAK2 (heterodimeric complex); test: IL-12 Induced pSTAT4 in Human PBMC; assay type: cell-based; details: 1.7 ng/mL IL-12
Excerpt: The IL-12 Induced pSTAT4 assay evaluates the inhibition of IL-12 induced STAT4 phophorylation mediated by Tyk2/JAK2 (heterodimeric complex).

[2] = system: GM-CSF induced STAT5 phosphorylation mediated by the JAK2/JAK2 homdimeric complex; test: GM-CSF Induced pSTAT5 in Human PBMC
Excerpt: Human PBMC are isolated from buffy coat and are stored frozen for assays as needed.

[3] = Homo sapiens, PBMC, 20 min, read-out: PBMC_GMCSF_pSTAT5 IC50, human PBMC, GM-CSF 5 ng/mL for 20 minutes, pSTAT5
[4] = Homo sapiens, PBMC, 20 min, read-out: PBMC_GMCSF_pSTAT5 IC50
[5] = read-out: PBMC_GMCSF_pSTAT5 IC50, human PBMC, GM-CSF 5 ng/mL for 20 minutes, pSTAT5

SMILES | IC50 [1] | IC50 [2, 3] | IC50 [2, 4] | IC50 [2, 5]
CNc1cc(Nc2cccn3ccnc23)nc2c(C(=O)N[C@@H]3C[C@@H]3F)cnn12 [I-892] | < 100 nM | > 12500 nM | – | –
[2H]C([2H])([2H])Oc1ncc(C)cc1Nc1cc(NC)n2ncc(C(=O)NC3CC3)c2n1 [I-258] | < 100 nM | > 50000 nM | – | –
[2H]C([2H])([2H])Oc1ncccc1Nc1cc(NC)n2ncc(C(=O)NCC(C)(C)CO)c2n1 [I-347] | < 100 nM | > 50000 nM | – | –
CCONC(=O)c1cnn2c(NC)cc(Nc3cccn(-c4ncccc4F)c3=O)nc12 [I-798, N-ethoxy-5-((3′-fluoro-2-oxo-2H-[1,2′-bipyridin]-3-yl)amino)-7-(methylamino) pyrazolo[1,5-a]pyrimidine-3-carboxamide] | […] | – | > 50000 nM | –
CNc1cc(Nc2cccn(-c3nc(C)co3)c2=O)nc2c(C(=O)NC3CCC3)cnn12 [I-386] | < 100 nM | > 50000 nM | – | –
CNc1cc(Nc2cccn(C3CCN(CCF)CC3)c2=O)nc2c(C(=O)NCC(C)(C)CO)cnn12 [I-847] | 100 to 500 nM | > 50000 nM | – | –
CNc1cc(Nc2cc(F)cnc2OC2CC2)nc2c(C(=O)NC3CC3)cnn12 [I-274] | < 100 nM | > 12500 nM | – | –
COc1ncccc1Nc1cc(NCCCN2CCOCC2)n2ncc(C(=O)N[C@@H]3C[C@@H]3F)c2n1 (stereo in doubt) [I-377, N-((1R,2S)-2-fluorocyclopropyl)-5-((2-methoxypyridin-3-yl)amino)-7-((3-morpholinopropyl)amino)pyrazolo[1,5-a]pyrimidine-3-carboxamide] | 100 to 500 nM | > 50000 nM | – | –
CNc1cc(Nc2cccn(-c3ncco3)c2=O)nc2c(C(=O)N[C@H]3C[C@H]3F)cnn12 [I-716] | < 100 nM | > 2500 nM | – | –
CNc1cc(Nc2cc(Cl)cn(-c3cnn(C4CC4)c3C)c2=O)nc2c(C(=O)N[C@H]3C[C@H]3F)cnn12 [I-326] | < 100 nM | > 50000 nM | – | –
CNc1cc(Nc2cc(Cl)cn(C3CCOCC3)c2=O)nc2c(C(=O)N[C@@H]3CC[C@H]3O)cnn12 [I-825] | < 100 nM | > 50000 nM | – | –
CNc1cc(Nc2cc(C)cnc2OCCOC)nc2c(C(=O)NC3CCC3)cnn12 [I-282] | 100 to 500 nM | > 2500 nM | – | –
CNc1cc(Nc2cccn([C@H]3CC[C@@H](OC)CC3)c2=O)nc2c(C(=O)N[C@H]3C[C@H]3F)cnn12 [I-357] | < 100 nM | > 2500 nM | – | –
CNc1cc(Nc2cccn(-c3ocnc3C)c2=O)nc2c(C(=O)N[C@@H]3C[C@@H]3F)cnn12 [I-790] | < 100 nM | > 12500 nM | – | –
CNc1cc(Nc2cccn(-c3ccccn3)c2=O)nc2c(C(=O)N[C@H]3CC[C@H]3O)cnn12 [I-805] | < 100 nM | > 12500 nM | – | –
CNc1cc(Nc2cc(Cl)cn([C@H]3CCCN(C)C3)c2=O)nc2c(C(=O)NC3CC3)cnn12 [I-820] | < 100 nM | > 12500 nM | – | –
CNc1cc(Nc2cccnc2OC(C)C)nc2c(C(N)=O)cnn12 [I-72] | 100 to 500 nM | > 12500 nM | – | –
CNc1cc(Nc2cccn(C3CCCN(CCF)C3)c2=O)nc2c(C(=O)N[C@@H]3C[C@@H]3F)cnn12 (stereo partly shown) [I-849] | 100 to 500 nM | > 50000 nM | – | –
CNc1cc(Nc2cc(Cl)cn(C3CCCOC3)c2=O)nc2c(C(=O)N[C@H]3C[C@H]3F)cnn12 (stereo partly shown) [I-693] | < 100 nM | > 50000 nM | – | –
CNc1cc(Nc2cccn([C@@H]3CCCOC3)c2=O)nc2c(C(=O)N[C@H]3CC[C@H]3O)cnn12 [I-751] | < 100 nM | > 12500 nM | – | –
CNc1cc(Nc2cc(Cl)cn(-c3cc(C)n(C)n3)c2=O)nc2c(C(=O)NC3CC3)cnn12 [I-314] | < 100 nM | > 2500 nM | – | –
CNc1cc(Nc2cccn3ccnc23)nc2c(C(=O)NC3CC3)cnn12 [I-891] | < 100 nM | > 50000 nM | – | –
CNc1cc(Nc2cccn(-c3ccn(C)n3)c2=O)nc2c(C(=O)NC3CCC3)cnn12 [I-139] | < 100 nM | > 50000 nM | – | –
CNc1cc(Nc2cc(F)cnc2OCCOC)nc2c(C(=O)NC3CCC3)cnn12 [I-290] | < 100 nM | > 2500 nM | – | –
CNc1cc(Nc2cccn([C@H]3CC[C@@](C)(OC)CC3)c2=O)nc2c(C(=O)N[C@H]3C[C@H]3F)cnn12 [I-360] | < 100 nM | > 50000 nM | – | –
CNc1cc(Nc2cccn([C@H]3CC[C@H](OC)CC3)c2=O)nc2c(C(=O)NC3CCC3)cnn12 [I-345] | < 100 nM | > 50000 nM | – | –
CNc1cc(Nc2cc(Cl)cn(C3CCN(C)CC3)c2=O)nc2c(C(=O)NC3CC3)cnn12 [I-883] | < 100 nM | > 12500 nM | – | –

SMILES | IC50 [1] | IC50 [2, 3] | IC50 [2, 4] | IC50 [2, 5]
CNc1cc(Nc2cccn([C@H]3CC[C@](C)(OC)CC3)c2=O)nc2c(C(=O)N[C@@H]3CC[C@@H]3O)cnn12 [I-722, N-((1S,2R)-2-hydroxycyclobutyl)-5-((1-((1R,4S)-4-methoxy-4-methylcyclohexyl)-2-oxo-1,2-dihydropyridin-3-yl)amino)-7-(methylamino)pyrazolo[1,5-a]pyrimidine-3-carboxamide] | < 100 nM | – | – | > 12500 nM
CNc1cc(Nc2cccnc2OC)nc2c(C(=O)N[C@@H]3CC[C@H]3O)cnn12 (stereo in doubt) [I-363, N-((1R,2R)-2-hydroxycyclobutyl)-5-((2-methoxypyridin-3-yl)amino)-7-(methylamino)pyrazolo[1,5-a]pyrimidine-3-carboxamide] | < 100 nM | – | – | > 50000 nM
CNc1cc(Nc2cccn(-c3ccccn3)c2=O)nc2c(C(=O)N[C@@H]3CC[C@H]3OC)cnn12 (stereo in doubt) [I-816, N-(2-methoxycyclobutyl)-7-(methylamino)-5-((2-oxo-2H-[1,2′-bipyridin]-3-yl)amino)pyrazolo[1,5-a]pyrimidine-3-carboxamide] | < 100 nM | – | – | > 2500 nM
CNc1cc(Nc2cccn(-c3cnc(C(C)(C)O)cn3)c2=O)nc2c(C(=O)NC3CCC3)cnn12 [I-95] | < 100 nM | – | > 50000 nM | –
CNc1cc(Nc2cccn(-c3ccc(C(=O)N4CCCC4)cn3)c2=O)nc2c(C(=O)NC3CCC3)cnn12 [I-121] | 100 to 500 nM | > 12500 nM | – | –
[2H]C([2H])([2H])Oc1ncccc1Nc1cc(NC)n2ncc(C(=O)N[C@H]3CC[C@H](O)C3)c2n1 [I-500] | < 100 nM | > 50000 nM | – | –
CNc1cc(-c2cn(C(C)C)c3ncccc23)nc2c(C(=O)N[C@@H]3CC[C@H]3O)cnn12 [I-640] | < 100 nM | > 12500 nM | – | –
CNc1cc(Nc2cccc3ocnc23)nc2c(C(=O)NC3CC3)cnn12 [I-591] | < 100 nM | > 12500 nM | – | –
CNc1cc(Nc2cccn([C@H]3CC[C@@H]3O)c2=O)nc2c(C(=O)N[C@@H]3C[C@@H]3F)cnn12 [I-916] | < 100 nM | > 50000 nM | – | –
CNc1cc(Nc2cccn(C3CCC4(CC3)OCCO4)c2=O)nc2c(C(=O)N[C@@H]3C[C@@H]3F)cnn12 [I-415, N-((1R,2S)-2-fluorocyclopropyl)-7-(methylamino)-5-((2-oxo-1-(1,4-dioxaspiro 14.51 decan-8-yl)-1,2-dihydropyridin-3-yl)amino)pyrazolo[1,5-a]pyrimidine-3-carboxamide] | < 100 nM | > 50000 nM | – | –
CNc1cc(Nc2cccn([C@@H]3CCC[C@H](OC)C3)c2=O)nc2c(C(=O)N[C@@H]3C[C@@H]3F)cnn12 [I-840] | < 100 nM | > 50000 nM | – | –
CNc1cc(Nc2cc(F)cc(F)c2F)nc2c(C(=O)NC3CC3)cnn12 [I-5] | < 100 nM | > 50000 nM | – | –
[2H]C([2H])([2H])Oc1ncccc1Nc1cc(NC)n2ncc(C(=O)N[C@@H]3CC[C@H]3O)c2n1 [I-410] | < 100 nM | > 12500 nM | – | –
CNc1cc(Nc2cccn(-c3cccc(F)c3)c2=O)nc2c(C(=O)N[C@@H]3CC[C@H]3O)cnn12 [I-946] | < 100 nM | > 50000 nM | – | –
CNc1cc(Nc2cccnc2OC2CC2)nc2c(C(=O)N[C@H]3CC[C@@H]3O)cnn12 [I-397] | < 100 nM | > 50000 nM | – | –
CNc1cc(Nc2cccn(-c3ncc(C)s3)c2=O)nc2c(C(=O)NC3CCC3)cnn12 [I-263] | < 100 nM | > 2500 nM | – | –
CNc1cc(Nc2cccn(C3CCC4(CC3)OCCO4)c2=O)nc2c(C(=O)NC3CC3)cnn12 [I-393] | < 100 nM | > 12500 nM | – | –
CNc1cc(Nc2cccnc2OC2CC2)nc2c(C(=O)NCC3(CO)CC3)cnn12 [I-426] | < 100 nM | > 50000 nM | – | –
CNc1cc(Nc2cc(Cl)cn(C3CCCOC3)c2=O)nc2c(C(=O)NC3CC3)cnn12 (stereo not shown) [I-711] | < 100 nM | > 50000 nM | – | –
[2H]C([2H])([2H])Oc1ncc(F)cc1Nc1cc(NC)n2ncc(C(=O)NC3CC3)c2n1 [I-284] | < 100 nM | > 12500 nM | – | –
CNc1cc(Nc2cccn(-c3ccc(F)cc3)c2=O)nc2c(C(=O)N[C@H]3C[C@H]3F)cnn12 [I-132] | < 100 nM | > 2500 nM | – | –
CNc1cc(Nc2cccn([C@H]3CCCOC3)c2=O)nc2c(C(=O)N[C@@H]3CC[C@H]3O)cnn12 [I-725] | < 100 nM | > 2500 nM | – | –
CNc1cc(Nc2cccn(-c3cnc(C)o3)c2=O)nc2c(C(=O)N[C@H]3C[C@H]3F)cnn12 [I-718] | < 100 nM | > 12500 nM | – | –
CNc1cc(Nc2cccn([C@@H]3CCC[C@H](OC)C3)c2=O)nc2c(C(=O)NC3CC3)cnn12 [I-621] | < 100 nM | > 50000 nM | – | –
CNc1cc(Nc2cccn(-c3cnn(CC4CCOCC4)c3)c2=O)nc2c(C(=O)N[C@H]3C[C@H]3F)cnn12 [I-407] | < 100 nM | > 12500 nM | – | –
CNc1cc(Nc2cccn(C3CCCCC3)c2=O)nc2c(C(=O)N[C@H]3C[C@H]3F)cnn12 [I-305] | < 100 nM | > 12500 nM | – | –
